Target: NaV 1.8 channel (Homo sapiens, UniProt Q9Y5Y9)
Test: Activity against NaV 1.8 channel (optical membrane potential assay)
Format: cell-based
Method in brief: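 FRET membrane-potential assay (coumarin CC2-DMPE donor, oxonol DiSBAC2(3) acceptor plus veratridine) on VIPR; compound added with oxonol for 20–30 min before Na+ add-back stimulation. Activity from background-subtracted 460/580 nm ratio change (baseline 2–7 s, response 15–24 s) relative to tetracaine positive and drug-free negative controls.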

Chain of NaV 1.8 channel (Q9Y5Y9 whole entry): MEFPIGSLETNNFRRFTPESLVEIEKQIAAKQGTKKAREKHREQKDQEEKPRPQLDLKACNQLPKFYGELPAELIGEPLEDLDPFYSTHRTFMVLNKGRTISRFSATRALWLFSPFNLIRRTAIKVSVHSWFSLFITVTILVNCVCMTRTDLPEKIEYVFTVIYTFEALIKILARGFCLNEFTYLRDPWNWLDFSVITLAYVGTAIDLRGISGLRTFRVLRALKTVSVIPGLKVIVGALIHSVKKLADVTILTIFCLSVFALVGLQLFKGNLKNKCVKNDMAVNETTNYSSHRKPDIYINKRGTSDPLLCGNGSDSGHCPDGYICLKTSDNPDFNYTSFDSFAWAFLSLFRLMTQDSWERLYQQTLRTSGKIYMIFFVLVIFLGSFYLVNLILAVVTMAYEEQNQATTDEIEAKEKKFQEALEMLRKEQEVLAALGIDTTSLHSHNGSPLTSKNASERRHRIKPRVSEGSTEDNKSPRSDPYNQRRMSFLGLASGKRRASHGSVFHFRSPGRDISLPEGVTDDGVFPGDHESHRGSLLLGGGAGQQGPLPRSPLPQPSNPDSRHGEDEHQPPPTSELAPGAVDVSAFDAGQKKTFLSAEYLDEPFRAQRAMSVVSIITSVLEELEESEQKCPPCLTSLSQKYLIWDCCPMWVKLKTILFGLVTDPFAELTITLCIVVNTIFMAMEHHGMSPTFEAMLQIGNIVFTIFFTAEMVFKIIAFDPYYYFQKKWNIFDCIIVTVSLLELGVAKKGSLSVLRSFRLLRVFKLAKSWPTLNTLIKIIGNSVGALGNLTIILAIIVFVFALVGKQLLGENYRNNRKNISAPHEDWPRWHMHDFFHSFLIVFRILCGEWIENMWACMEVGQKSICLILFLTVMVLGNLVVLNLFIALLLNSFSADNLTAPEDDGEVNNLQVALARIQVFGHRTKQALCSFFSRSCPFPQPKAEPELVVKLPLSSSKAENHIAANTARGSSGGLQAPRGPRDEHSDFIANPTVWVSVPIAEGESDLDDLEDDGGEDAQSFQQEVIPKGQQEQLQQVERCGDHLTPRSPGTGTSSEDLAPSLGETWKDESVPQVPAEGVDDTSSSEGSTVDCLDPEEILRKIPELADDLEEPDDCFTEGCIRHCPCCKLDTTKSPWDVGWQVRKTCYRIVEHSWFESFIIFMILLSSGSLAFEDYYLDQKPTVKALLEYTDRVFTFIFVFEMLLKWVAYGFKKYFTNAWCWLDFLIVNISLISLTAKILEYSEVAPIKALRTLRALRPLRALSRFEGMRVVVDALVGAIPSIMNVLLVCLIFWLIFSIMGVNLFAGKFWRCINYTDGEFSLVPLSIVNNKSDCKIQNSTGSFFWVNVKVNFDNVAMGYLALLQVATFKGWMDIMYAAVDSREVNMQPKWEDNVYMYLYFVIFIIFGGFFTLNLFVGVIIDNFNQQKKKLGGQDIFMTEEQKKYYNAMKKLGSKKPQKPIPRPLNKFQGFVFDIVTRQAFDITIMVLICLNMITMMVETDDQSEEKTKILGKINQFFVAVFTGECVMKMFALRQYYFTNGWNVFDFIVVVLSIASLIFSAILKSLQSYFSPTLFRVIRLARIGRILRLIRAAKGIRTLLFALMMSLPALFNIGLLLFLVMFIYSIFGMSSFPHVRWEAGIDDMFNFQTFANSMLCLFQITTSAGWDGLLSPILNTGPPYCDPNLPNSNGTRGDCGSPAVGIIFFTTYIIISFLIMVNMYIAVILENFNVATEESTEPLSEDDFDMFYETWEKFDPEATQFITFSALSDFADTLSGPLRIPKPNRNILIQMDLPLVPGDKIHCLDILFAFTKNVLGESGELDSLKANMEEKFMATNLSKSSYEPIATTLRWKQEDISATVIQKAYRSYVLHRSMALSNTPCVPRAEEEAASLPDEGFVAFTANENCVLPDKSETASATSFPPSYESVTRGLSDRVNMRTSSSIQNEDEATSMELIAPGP

Structure (SMILES)	IC50
CC(C)(O)C(=O)NC1CCN(c2nc(-c3ccccc3O)nc3ccccc23)CC1 [Example 235, 2-Hydroxy-N-(1-(2-(2-hydroxyphenyl)quinazolin-4-yl)piperidin-4-yl)-2-methylpropanamide]	2 to 10 µM
Cc1ccc2c(N3CCCC(CNC(=O)O[C@H]4CCOC4)C3)nc(-c3ccccc3O)nc2c1 (stereo partly drawn) [Example 211, (S)-Tetrahydrofuran-3-yl (1-(2-(2-hydroxyphenyl)-7-methylquinazolin-4-yl)piperidin-3-yl)methylcarbamate]	> 10 µM
CC[C@H](O)C(=O)N1CCN(c2nc(-c3ccccc3O)nc3cc(C)ccc23)CC1 [Example 137, (S)-2-Hydroxy-1-(4-(2-(2-hydroxyphenyl)-7-methylquinazolin-4-yl)piperazin-1-yl)butan-1-one]	2 to 10 µM
Cc1ccc2c(N3CCCC(CNC(=O)O[C@@H]4CCOC4)C3)nc(-c3ccccc3O)nc2c1 (stereo partly drawn) [Example 210, (R)-Tetrahydrofuran-3-yl (1-(2-(2-hydroxyphenyl)-7-methylquinazolin-4-yl)piperidin-3-yl)methylcarbamate]	2 to 10 µM
CCC(O)(CC)C(=O)N1CCN(c2nc(-c3ccccc3O)nc3ccccc23)CC1 [Example 115, 2-Ethyl-2-hydroxy-1-(4-(2-(2-hydroxyphenyl)quinazolin-4-yl)piperazin-1-yl)butan-1-one]	> 10 µM
Cc1ccc2c(N3CCN(C(=O)OCc4ccccc4)CC3CO)nc(-c3ccccc3O)nc2c1 (stereo not shown) [Example 157, 3-Hydroxymethyl-4-[2-(2-hydroxy-phenyl)-7-methyl-quinazolin-4-yl]-piperazine-1-carboxylic acid benzyl ester]	2 to 10 µM
Cc1ccc2c(N3CCC(NC(=O)CCc4cccnc4)CC3)nc(-c3ccccc3O)nc2c1 [Example 225, N-{1-[2-(2-Hydroxy-phenyl)-7-methyl-quinazolin-4-yl]-piperidin-4-yl}-3-pyridin-3-yl-propionamide]	> 10 µM
Cc1ccc2c(N3CCC[C@H](CNC(=O)O[C@@H]4CCOC4)C3)nc(-c3ccccc3O)nc2c1 [Example 216, (R)-Tetrahydrofuran-3-yl ((R)-1-(2-(2-hydroxyphenyl)-7-methylquinazolin-4-yl)piperidin-3-yl)methylcarbamate]	> 10 µM
Cc1ccc2c(N3CC[C@@H](NC(=O)C4C(C)(C)C4(C)C)C3)nc(-c3ccccc3O)nc2c1 [Example 340, N—((R)-1-(2-(2-Hydroxyphenyl)-7-methylquinazolin-4-yl)pyrrolidin-3-yl)-2,2,3,3-tetramethylcyclopropanecarboxamide]	< 2 µM

Now from value to compound:

IC50	Structure (SMILES)
> 10 µM	CC[C@@H](O)C(=O)NC1CCN(c2nc(-c3ccccc3O)nc3cc(C)ccc23)CC1 [Example 243, (2R)-2-Hydroxy-N-(1-(2-(2-hydroxyphenyl)-7-methylquinazolin-4-yl)piperidin-4-yl)butanamide]
> 10 µM	Cc1ccc2c(N3CC[C@@H](NC(=O)C(O)c4ccc(F)cc4)C3)nc(-c3c(O)cccc3F)nc2c1 (stereo partly drawn) [Example 359, N—((R)-1-(2-(2-Fluoro-6-hydroxyphenyl)-7-methylquinazolin-4-yl)pyrrolidin-3-yl)-2-(4-fluorophenyl)-2-hydroxyacetamide]
< 2 µM	Cc1ccc2c(N3CC(CNC(=O)OC(C)C)C3)nc(-c3ccccc3O)nc2c1 [Example 420]
> 10 µM	Cc1ccc2c(N3CC[C@@H](NC(=O)CCC4CCCC4)C3)nc(-c3ccccc3O)nc2c1 [Example 323, (R)-3-Cyclopentyl-N-{1-[2-(2-hydroxy-phenyl)-7-methyl-quinazolin-4-yl]-pyrrolidin-3-yl}-propionamide]
> 10 µM	CCCCC(O)C(=O)NC1CCN(c2nc(-c3ccccc3O)nc3cc(C)ccc23)CC1 (stereo not shown) [Example 245, 2-Hydroxy-N-(1-(2-(2-hydroxyphenyl)-7-methylquinazolin-4-yl)piperidin-4-yl)hexanamide]
< 2 µM	Cc1ccc2c(N3CC[C@H](NC(=O)OC(C)(C)C)C3)nc(-c3ccccc3O)nc2c1 [Example 370, tert-Butyl (S)-1-(2-(2-hydroxyphenyl)-7-methylquinazolin-4-yl)pyrrolidin-3-ylcarbamate]
> 10 µM	Cc1ccc2c(N3CCC(NC(=O)C(O)C(C)C)CC3)nc(-c3ccccc3O)nc2c1 (stereo not shown) [Example 264]

From US7928107B2, “Quinazolines useful as modulators of ion channels” (Vertex Pharmaceuticals Incorporated, priority 2004, dated 2011)
